Data reported in PMC10988555, “Exploiting Co(III)-Cyclopentadienyl Complexes To Develop Anticancer Agents” (Inorganic Chemistry, 2024).

Assays:
[1] = tested on: normal human primary dermal fibroblasts; experiment: Antiproliferative activity, MTS assay, healthy fibroblasts; type: cell-based; conditions: 48 h exposure, healthy human cells
Description: Human colorectal carcinoma cell line (HCT116), human breast cancer cell lines (MDA-MB-231 and MCF-7), and normal human primary dermal fibroblasts neonatal (PCS-201-010) cell line were grown in DMEM (Dulbecco’s modified Eagle’s medium) (Invitrogen Corp., Grand Island, NY, USA) supplemented with 10% (v/v) fetal bovine serum and 1% (v/v) antibiotic/antimycotic solution (Invitrogen Corp.). The human ovarian carcinoma (A2780) cell line was cultivated using RPMI (Roswell Park Memorial Institute) medium supplemented as in DMEM medium. The supplemented medium is named a complete medium. Cells were grown in an incubator with a humidified atmosphere at 5% (v/v) CO2 and 37 °C. All cell lines were purchased from ATCC (ATCC, American Type Culture Collection).
The evaluation of the cytotoxic potential of complexes 1–4 was obtained through in vitro measurements of the antiproliferative activity of these complexes. Cells were plated in 96-well plates at 7.5 × 10^4 cells/mL and incubated at 37 °C with 5% (v/v) CO2. After 24 h, the culture medium was replaced with fresh medium (100 μL) containing 0.1–50 μM of the different complexes and incubated for 48 h in tumor cell lines or containing 0.1–100 μM of the different complexes and incubated for 48 h in fibroblasts. […] The fibroblast cell line was used as a control of the cytotoxicity of the complexes for healthy cells. Cell viability was evaluated using Cell Titer 96 Aqueous Non-Radioactive Cell Proliferation Assay (Promega, Madison, WI, USA) using 3-(4,5-dimethylthiazol-2-yl)-5-(3-carboxymethoxyphenyl)-2-(4-sulfophenyl)-2H-tetrazolium inner salt (MTS), as described previously.[60] In metabolically active cells, enzymes present in the mitochondria catalyze a reaction in which NADPH/NADH is produced. These enzymes reduce the MTS reagent into a brownish product, Formazan, which can be quantified by measuring the absorbance at 490 nm. The quantity of formazan produced is directly proportional to the number of viable cells in the culture. This quantification was executed with a Biorad microplate reader Model 680 (Bio-Rad, Hercules, CA, USA). Half maximal inhibitory concentration (IC50) was calculated using GraphPad Prism 6 (GraphPadSoftware). We have calculated the ratio between the IC50 of fibroblasts and the IC50 of HCT116, A2780, MDA-MB-231, or MCF-7 cell lines for complexes 1–4 that was named herein as the Selectivity index (SI). To ensure the solubility of the complexes in all biological assays, complex solutions were freshly prepared and well solubilized before addition to the cells.

Calf Thymus DNA (CT-DNA) = experiment: Calf thymus DNA binding assays (UV-vis, melting profile); conditions: UV spectroscopy, 25 μM complex
Description: Calf Thymus DNA (CT-DNA) binding assay was performed through the UV–vis spectra from 230 to 700 nm on the spectrophotometer Evolution 300 UV–vis (Thermo Fischer Scientific, Waltham, MA, USA). It was used a filtered buffer (5 mM Tris–HCl, 50 mM NaCl, pH 7.02) for the dilution of 0–50 μM of CT-DNA and 25 μM of the complexes 2–4. Control solutions of CT-DNA, CT-DNA + DMSO, and DMSO were also prepared. All solutions were incubated for 24 h at 37 °C and then analyzed. CT-DNA concentration in […] had been determined at 260 nm in a NanoDrop2000 spectrophotometer (Thermo Scientific), using an extinction coefficient of 6600 M^–1 cm^–1. The dilution effect because of the addition of the DNA solution was corrected and the affinity constants were calculated according to eq 2: [drawing 2] 2 where [DNA] is the concentration of CT-DNA (per nucleotide phosphate), εa = Abs/[complex], εf is the extinction coefficient for the free complex, and εb is the extinction coefficient for [Co(η^5-C5H5)(PPh3)(NN)][(CF3SO3)2] when fully bound to DNA. DNA concentration (expressed as the molarity of phosphate groups) was determined with a NanoDrop 2000 spectrophotometer assuming ε260 = 6600 M^–1 cm^–1. A melting profile of 10 μM CT-DNA and 10 μM CT-DNA with 10 μM of the complexes 2–4, was also performed. Evagreen dye was added to all samples after a 1h 30 min incubation of CT-DNA with the complexes at 37 °C. Melting curves were analyzed in a Corbet RotorGene 6000 (Biorad, Spain) by a first incubation step at 37 °C for 5 min followed by a ramp from 37 to 95 °C with 90 s hold in the first step and 5 s hold in the next steps with green acquisition.

A2780 cells = experiment: Cell fractioning and ICP-AES (cytosolic, mitochondrial, nuclear fractions); type: cell-based, human; conditions: A2780, 12 h, 10× IC50, 37 °C
Description: Internalization of the complexes in different cellular factions (cytosolic, mitochondrial, or nuclear) of A2780 cells was evaluated by using a cell fractionation kit (Abcam). Cells were seeded in a 24-well plate at a density of 2 × 10^5 cells/mL and incubated for 24 h at 37 °C with 5% (v/v) CO2. […] Cells were then incubated for 12 h at the same conditions as before. The culture media was recovered to a new tube (supernatant fraction) and cells were detached from the T-flask with 250 μL of TE (Gibco by life technologies). Then, we followed the instructions provided by the manufacturer of the cell fractionation kit (Abcam). At the end of the procedure, fresh aqua regia was added to the supernatant tube and to the cellular fractions and incubated overnight at room temperature (RT) in the hood fume. Samples were delivered to Laboratório de Análises/LAQV and the levels of cobalt were evaluated by ICP-AES.

A2780 cell line = experiment: Mitochondrial membrane potential (ΔΨM), JC-1 flow cytometry; type: cell-based, human; conditions: A2780, IC50, 48 h, JC-1 red/green ratio vs DMSO
Description: ΔΨM was evaluated in the A2780 cell line using the JC-1 Mitochondrial Membrane Potential Assay Kit (Abnova, Taipei, Taiwan). Cells were seeded at a density of 2 × 10^5 cells/well in 6-well plates and incubated for 24 h. […] After an incubation of 48 h, the cells were washed with PBS 1×, detached with TE, and incubated with JC-1 in RPMI medium without phenol red + 5% (v/v) FBS for 20 min at 37 °C. The cells were then resuspended in the same medium and the ΔΨM was evaluated with the Attune acoustic focusing flow cytometer (ThermoFisher Scientific) and respective software.

Cc1ccnc(-c2cc(C)ccn2)c1.O=S(=O)([O-])C(F)(F)F.O=S(=O)([O-])C(F)(F)F.[Co+3].c1cc[cH-]c1.c1ccc(P(c2ccccc2)c2ccccc2)cc1 [Complex 2, [Co(η^5-C5H5)(PPh3)(Me2bipy)][(CF3SO3)2]]
IC50 [1]: > 100 µM
effect on lowest-energy absorption band with increasing CT-DNA (Calf Thymus DNA (CT-DNA)): a small hyperchromic effect
Percentage of internalization in cytosol (A2780 cells): 36.9% ± 10.4
Percentage of internalization in mitochondria (A2780 cells): 17.6% ± 6.5
Percentage of internalization in nucleus (A2780 cells): 38.1% ± 7.4
mitochondrial membrane potential (ΔΨM) change (A2780 cell line): low (without statistical significance) ΔΨM

O=S(=O)([O-])C(F)(F)F.O=S(=O)([O-])C(F)(F)F.[Co+3].c1cc[cH-]c1.c1ccc(P(c2ccccc2)c2ccccc2)cc1.c1cnc2c(c1)ccc1cccnc12 [Complex 3, [Co(η^5-C5H5)(PPh3)(phen)][(CF3SO3)2]]
IC50 [1]: > 100 µM
effect on lowest-energy absorption band with increasing CT-DNA (Calf Thymus DNA (CT-DNA)): a hypochromic effect
Percentage of internalization in cytosol (A2780 cells): 30.6% ± 2.7
Percentage of internalization in mitochondria (A2780 cells): 26.0% ± 11.4
Percentage of internalization in nucleus (A2780 cells): 20.3% ± 5.8
mitochondrial membrane potential (ΔΨM) change (A2780 cell line): low (without statistical significance) ΔΨM

Nc1cc2cccnc2c2ncccc12.O=S(=O)([O-])C(F)(F)F.O=S(=O)([O-])C(F)(F)F.[Co+3].c1cc[cH-]c1.c1ccc(P(c2ccccc2)c2ccccc2)cc1 [Complex 4, [CoCp(PPh3)(NH2phen)][(CF3SO3)2]]
IC50 [1]: > 100 µM
effect on lowest-energy absorption band with increasing CT-DNA (Calf Thymus DNA (CT-DNA)): a hypochromic effect
Percentage of internalization in cytosol (A2780 cells): 66.4% ± 14.7
Percentage of internalization in mitochondria (A2780 cells): 4.5% ± 2.1
Percentage of internalization in nucleus (A2780 cells): 18.4% ± 4.9
mitochondrial membrane potential (ΔΨM) change (A2780 cell line): an increase in ΔΨM was observed
